From ChEMBL document CHEMBL4665736, “Synthesis and structural insights into the binding mode of the albomycin δ1 core and its analogues in complex with their target aminoacyl-tRNA synthetase” (Bioorg Med Chem, 2020)
Each block holds one compound with its values, some of them ahead of it. Activity calls are given as the source filed them. No cut-off for these calls is given here.

Key:
[1] = biological target: Serine--tRNA ligase (Escherichia coli (strain K12)) (UniProt P0A8L1); assay: (§1) Inhibition of recombinant Escherichia coli BL21(DE3) seryl-tRNA synthetase expressed in Escherichia coli Rosetta 2 (DE3) assessed as reduction in tRNA aminoacylation at 0.1 uM preincubated for 10 mins in presence of [14C]-serine and tRNA and iPPase followed by ATP addition by scintillation counting method relative to control
Serine--tRNA ligase (Escherichia coli (strain K12)), sequence (P0A8L1 whole entry, looked up): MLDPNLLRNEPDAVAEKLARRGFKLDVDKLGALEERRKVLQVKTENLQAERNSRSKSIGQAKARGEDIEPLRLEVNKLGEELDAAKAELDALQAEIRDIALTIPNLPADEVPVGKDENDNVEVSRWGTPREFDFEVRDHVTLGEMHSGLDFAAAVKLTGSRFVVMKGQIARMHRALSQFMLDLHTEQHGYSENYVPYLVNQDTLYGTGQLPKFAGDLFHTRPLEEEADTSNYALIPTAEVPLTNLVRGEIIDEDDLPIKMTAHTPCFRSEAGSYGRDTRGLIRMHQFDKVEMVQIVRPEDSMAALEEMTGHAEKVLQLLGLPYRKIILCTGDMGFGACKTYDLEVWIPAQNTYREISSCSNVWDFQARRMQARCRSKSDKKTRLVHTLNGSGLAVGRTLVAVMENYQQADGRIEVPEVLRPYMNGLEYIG

[2] = biological target: Serine--tRNA ligase (Escherichia coli (strain K12)) (UniProt P0A8L1); assay: as §1, with “1” for “0.1”
[3] = tested on: Escherichia coli BL21(DE3); assay: Inhibition of recombinant Escherichia coli BL21(DE3) isoleucyl-tRNA synthetase expressed in Escherichia coli Rosetta 2 (DE3) assessed as reduction in tRNA aminoacylation at 10 uM preincubated for 10 mins in presence of [14C]-isoleucin and tRNA and iPPase followed by ATP addition and measured after 6 mins by scintillation counting method; conditions: time 16.0 min
[4] = tested on: Escherichia coli BL21(DE3); assay: (§2) Inhibition of recombinant Escherichia coli BL21(DE3) aspartyl-tRNA synthetase expressed in Escherichia coli Rosetta 2 (DE3) assessed as reduction in tRNA aminoacylation at 1 uM preincubated for 10 mins in presence of [14C]-aspartate and tRNA and iPPase followed by ATP addition by scintillation counting method
[5] = biological target: Serine--tRNA ligase (Escherichia coli (strain K12)) (UniProt P0A8L1); assay: as §1, with “10” for “0.1”
[6] = tested on: Escherichia coli BL21(DE3); assay: as §2, with “10 nM” for “1 uM”
[7] = tested on: Escherichia coli BL21(DE3); assay: as §1, with “aspartyl-tRNA” for “seryl-tRNA”, “[14C]-aspartate” for “[14C]-serine”
[8] = as §2, with “aminoacylation” for “aminoacylation at 1 uM”

- inhibition [1]: 50%
- inhibition [2]: 80%
SMILES: Cn1c(=O)ccn([C@@H]2S[C@H]([C@@H](O)[C@@H](NC(=O)[C@@H](N)CO)C(=O)O)[C@H](O)[C@H]2O)c1=O

- inhibition [3]: inactive
SMILES: CC[C@H](C)[C@H](N)C(=O)NC(C(=O)O)C(O)[C@H]1S[C@@H](n2ccc(=O)n(C)c2=O)[C@H](O)[C@H]1O (mixture of isomers)

- inhibition [4]: inactive
SMILES: Cn1c(=O)ccn([C@@H]2S[C@H]([C@H](O)[C@H](NC(=O)[C@@H](N)CC(=O)O)C(=O)O)[C@H](O)[C@H]2O)c1=O

- inhibition [5]: 25%
SMILES: Cn1c(=O)ccn([C@@H]2S[C@H]([C@H](O)[C@H](NC(=O)[C@@H](N)CO)C(=O)O)[C@H](O)[C@H]2O)c1=O

- inhibition [6]: Active
- inhibition [7]: 60%
- IC50 [8]: 31 nM
SMILES: Cn1c(=O)ccn([C@@H]2S[C@H]([C@@H](O)[C@@H](NC(=O)[C@@H](N)CC(=O)O)C(=O)O)[C@H](O)[C@H]2O)c1=O
